{
  "source": "paper PMC11957373",
  "about": "(Organic & biomolecular chemistry, 2024)",
  "key": {"HIV-1 protease": {"target": "HIV-1 protease (Human immunodeficiency virus type 1 group M subtype B, UniProt P04585)", "assay": "HIV-1 protease inhibition, spectrofluorometric assay", "assay_type": "biochemical", "settings": "for Ki: HIV-1 protease"}, "HIVLAI": {"test_system": "HIVLAI", "assay": "Cell-based antiviral assay in MT-2 human-T-lymphoid cells exposed to HIVLAI", "parameters": "species or system HIV-1", "settings": "for antiviral activity (in words): MT-2 cells exposed to HIVLAI"}, "[1]": {"settings": "at least 5 data points, standard error less than 7%"}},
  "data": [
    {"smiles": "COC[C@H]1O[C@H](C)C[C@@H]1OC(=O)N[C@@H](Cc1ccccc1)[C@H](O)CN(CC(C)C)S(=O)(=O)c1ccc(OC)cc1", "note": "[4h, (2R,3S,5R)-2-(methoxymethyl)-5-methyltetrahydrofuran-3-yl((2S,3R)-3-hydroxy-4-((N-isobutyl-4-methoxyphenyl)sulfonamido)-1-phenylbutan-2-yl)carbamate]", "values": [
      {"measurement": "Ki", "setting": "HIV-1 protease; value printed in pM", "result": 49, "unit": "pM"},
      {"measurement": "fold improvement of enzyme affinity compared to compound 4c", "setting": "HIV-1 protease; relative to compound 4c", "result": "over 5 fold"}
    ]},
    {"smiles": "COC[C@@H]1O[C@H](C)C[C@@H]1OC(=O)N[C@@H](Cc1ccccc1)[C@H](O)CN(CC(C)C)S(=O)(=O)c1ccc(N)cc1", "note": "[4d, (2S,3S,5R)-2-(methoxymethyl)-5-methyltetrahydrofuran-3-yl((2S,3R)-4-((4-amino-N-isobutylphenyl)sulfonamido)-3-hydroxy-1-phenylbutan-2-yl)carbamate]", "values": [
      {"measurement": "fold reduction of protease inhibitory activity over compound 4c", "setting": "HIV-1 protease; relative to compound 4c", "result": "over 300 fold"}
    ]},
    {"smiles": "C=CCC1OC(C)CC1OC(=O)NC(Cc1ccccc1)C(O)CN(CC(C)C)S(=O)(=O)c1ccc(OC)cc1", "note": "[4a, (2S,3S,5R)-2-allyl-5-methyltetrahydrofuran-3-yl.((2S,3R)-3-hydroxy-4-((N-isobutyl-4-methoxyphenyl)sulfonamido)-1-phenylbutan-2-yl)carbamate]", "values": [
      {"measurement": "antiviral activity (in words)", "setting": "HIVLAI", "result": "did not exhibit any appreciable antiviral activity"},
      {"measurement": "Ki", "setting": "HIV-1 protease; [1]", "result": 400, "unit": "pM"}
    ]},
    {"smiles": "COc1ccc(S(=O)(=O)N(CC(C)C)C[C@@H](O)[C@H](Cc2ccccc2)NC(=O)O[C@H]2C[C@@H](C)O[C@H]2[C@@H]2CCCO2)cc1", "note": "[4k, (2S,2’S,3S,5R)-5-methyloctahydro-[2,2’-bifuran]-3-yl((2S,3R)-3-hydroxy-4-((N-isobutyl-4-methoxyphenyl)sulfonamido)-1-phenylbutan-2-yl)carbamate]", "values": [
      {"measurement": "antiviral activity (in words)", "setting": "HIVLAI", "result": "did not exhibit any appreciable antiviral activity"},
      {"measurement": "Ki", "setting": "HIV-1 protease; [1]", "result": 310, "unit": "pM"}
    ]},
    {"smiles": "COC[C@H]1O[C@@H](C)C[C@H]1OC(=O)N[C@@H](Cc1ccccc1)[C@H](O)CN(CC(C)C)S(=O)(=O)c1ccc(OC)cc1", "note": "[4e, (2R,3R,5S)-2-(methoxymethyl)-5-methyltetrahydrofuran-3-yl.((2S,3R)-3-hydroxy-4-((N-isobutyl-4-methoxyphenyl)sulfonamido)-1-phenylbutan-2-yl)carbamate]", "values": [
      {"measurement": "fold reduction of protease inhibitory activity over compound 4c", "setting": "HIV-1 protease; relative to compound 4c", "result": "~4", "unit": "fold"}
    ]},
    {"smiles": "COc1ccc(S(=O)(=O)N(CC(C)C)C[C@@H](O)[C@H](Cc2ccccc2)NC(=O)O[C@H]2C[C@@H](C)O[C@H]2[C@H]2CCCO2)cc1", "note": "[4l, (2S,2’R,3S,5R)-5-methyloctahydro-[2,2’-bifuran]-3-yl((2S,3R)-3-hydroxy-4-((N-isobutyl-4-methoxyphenyl)sulfonamido)-1-phenylbutan-2-yl)carbamate]", "values": [
      {"measurement": "antiviral activity (in words)", "setting": "HIVLAI", "result": "did not exhibit any appreciable antiviral activity"},
      {"measurement": "Ki", "setting": "HIV-1 protease; value printed in pM", "result": 44, "unit": "pM"}
    ]},
    {"smiles": "CC(C)CN(C[C@@H](O)[C@H](Cc1ccccc1)NC(=O)O[C@H]1CO[C@H]2OCC[C@H]21)S(=O)(=O)c1ccc(N)cc1", "note": "[Darunavir, darunavir, reference compound]", "values": [
      {"measurement": "EC50", "setting": "HIVLAI; Human immunodeficiency virus 1, MT2", "result": 1.6, "unit": "nM"}
    ]}
  ]
}
